Assay results reported in patent US20240139104A1, “MICELLE RELEASING THERMOSENSITIVE HYDROGELS AS A THERAPEUTIC DELIVERY SYSTEM” (GEORGIA TECH RESEARCH CORPORATION, priority 2021, published 2024).

How the values were obtained:
immune cells in blood = test: Immune cell profiles in blood (flow cytometry) after GSNO and aCTLA-4; format: in vivo, mice; conditions: CD4+T, CD8+T, NKT populations
Procedure: Immune cells in blood were collected and profiled to delineate the systemic immunity in the combinational use of GSNO and aCTLA-4 (FIG. 29). In brief, ACK lysis buffer was treated to the blood taken on day 9 to harvest immune cells in blood by removing red blood cells. All cells were stored on ice<2 h prior to use. Cells for flow cytometry were prepared by six steps with PBS, FACS buffer, or permeabilization buffer (eBioscience™ Foxp3/Transcription Factor Staining Buffer Set, Invitrogen™) wash; 2.4G2 staining on ice for 5 min, Zombie Aqua fixable viability dye staining at room temperature for 30 min, […]-MHCI-PE tetramer (NIH Tetramer Core Facility, Atlanta, Georgia) staining on ice for 15 min, antibody mixtures staining on ice for 30 min, fixing and permeabilizing with Foxp3 Fixation/Permeabilization working solution (eBioscience™ Foxp3/Transcription Factor Staining Buffer Set, Invitrogen™) on ice for 60 min, and FoxP3 staining on ice for 75 min. LSR Fortessa flow cytometry and flowJo were employed to analyze and profiles the stained cells.

B16F10-OVA tumor = test: GSNO (i.t.) and aCTLA-4 (i.p.) therapy without hydrogel, dual tumor model; format: in vivo, mice; conditions: GSNO 480 μg kg^−1 i.t. day 7; aCTLA-4 100 μg mouse^−1 i.p. day 8, 11, 14; compared to saline
Procedure: In brief, 10^5 B16F10-OVA (30 μL) was inoculated in left dorsal skin on day 0 and in right dorsal skin on day 4 to establish dual tumor model. 30 μL of saline or GSNO (480 μg kg ^−1) was administered to the left tumor on day 7 and 30 μL of aCTLA-4 (100 μg mouse^−1) was administered intraperitoneally on day 8, 11, 14.

[1] = Absorption/fluorescence and photostability of IR780 exposed to daylight; format: physicochemical; conditions: 10% ethanol
[2] = system: B16F10-OVA tumor and TdLNs; conditions: 15 μL of 0.016 mg mL^−1 IR780 intratumoral, IVIS 24 h after injection

With `N[C@@H](CCC(=O)N[C@@H](CSN=O)C(=O)NCC(=O)O)C(=O)O` [GSNO, S-nitrosoglutathione] the “systemic activation and expansion of T cell, NK and NKT in blood” value (immune cells in blood) was “failed to induce systemic activation and expansion of T cell, NK and NKT response” and the “therapeutic effects (1º and 2º tumor growth)” value (B16F10-OVA tumor) was “did not lead to any therapeutic effects”.
In the case of `CCCN1C(=CC=C2CCCC(C=CC3=[N+](CCC)c4ccccc4C3(C)C)=C2Cl)C(C)(C)c2ccccc21.[I-]` [IR780, IR780 iodide], the “time to complete photobleaching” value [1] is reported as ≤ 24 h and the “IR780 signal in injected tumor tissues and TdLNs” value [2] is reported as “cleared quickly from the injected tumor tissues and exhibited negligible signals in the TdLNs”.
